Data reported in patent US20160297830A1, “NOVEL COMPOUNDS USEFUL FOR THE TREATMENT OF BACTERIAL INFECTIOUS DISEASES” (GALAPAGOS NV, priority 2013, published 2016).
Values after ≈ are worked out from the molar mass of the structure shown. Where two headings read alike, the source gives them in different places.

Assays:
[1] = tested on: Methicillin Resistant S. aureus Sa2 (MRSA); type: in vivo; details: Groin Sa, sample time 31 h post infection
[2] = tested on: Methicillin Resistant S. aureus Sa2 (MRSA); assay: animal or person; type: in vivo; details: for log reduction at 50 mg/kg: 24 h
[3] = tested on: Methicillin Resistant S. aureus (MRSA); assay: Neutropenic mouse thigh infection model; details: Thigh Sa
[4] = tested on: S. aureus Sa1 ATCC 13709; assay: microbe, parasite or virus in culture; type: cell-based; details: Staphylococcus aureus, ATCC13709; S. aureus Sa1 ATCC 13709, sensitive strain; Mueller-Hinton Broth, 37° C.; read-out: MIC Sa1
[5] = tested on: H. influenza Hi106 ATCC 51907; assay: organism not typed; type: cell-based; details: read-out: MIC Hi106
[6] = target: DNA Polymerase IIIα (DnaE) from Staphylococcus aureus (Staphylococcus aureus, UniProt Q6GG04); assay: biochemical
[7] = tested on: E. coli Ec50 efflux pump KO; assay: microbe, parasite or virus in culture; type: cell-based; details: Escherichia coli, read-out: MIC Ec50 efflux pump KO
[8] = tested on: H. influenza Hi47 clinical strain, Ampicillin Resistant; assay: organism not typed; type: cell-based; details: read-out: MIC Hi47
[9] = target: DNA III Polymerase E (Escherichia coli, UniProt P10443); assay: In vitro activity against DNA III Polymerase E, E. coli; type: biochemical
Method in brief: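 Recombinant enzyme (0.47 μg/mL diluted stock) in 20 mM Tris pH7.5, 8 mM DTT, 10 mM MgOAc, 0.05% CHAPS met compound series from 100 μM top, 1/5 steps. Activated calf thymus DNA, dNTPs and [α-33P]-dTTP substrate were added, and incubation ran 120 min at 30° C. IC50 came from filter-captured incorporated radioactivity versus controls.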

[10] = tested on: S. aureus Sa26 ATCC 25923; assay: Antibacterial activity assay (MIC), S. aureus Sa26; type: cell-based; details: Staphylococcus aureus
[11] = tested on: H. influenza Hi3 ATCC 31517; assay: organism not typed; type: cell-based; details: read-out: MIC Hi3
[12] = tested on: E. coli Ec1 ATCC 25922; assay: Antibacterial activity assay (MIC), E. coli Ec1; type: cell-based; details: Escherichia coli, ATCC25922; E. coli Ec1 ATCC 25922, sensitive strain; read-out: MIC Ec1
[13] = tested on: S. aureus Sa2 clinical strain NCIMB 41953, MRSA; assay: microbe, parasite or virus in culture; type: cell-based; details: Staphylococcus aureus, read-out: MIC Sa2
[14] = tested on: H. influenza Hi10 clinical strain; assay: organism not typed; type: cell-based; details: read-out: MIC Hi10
[15] = tested on: E. coli Ec113 efflux pump KO; assay: microbe, parasite or virus in culture; type: cell-based; details: Escherichia coli, read-out: MIC Ec113 efflux pump KO
[16] = tested on: S. aureus Sa4 NCTC 6571; assay: Antibacterial activity assay (MIC), S. aureus Sa4; type: cell-based; details: Staphylococcus aureus, NCTC6571; S. aureus Sa4 NCTC 6571, sensitive strain; read-out: MIC Sa4
[17] = Staphylococcus aureus, MRSA, in Mus musculus, po, read-out: Log reduction vs. untreated, Study 3, 50 mg/kg PO BID, sample 24 h post infection, lung
[18] = Study 3, 50 mg/kg PO BID, sample 24 h post infection, lung
[19] = Study 1, 50 mg/kg SC BID, sample time 7 h PI
[20] = Study 2, 50 mg/kg SC BID, sample time 7 h PI
[21] = Study 3, 50 mg/kg SC BID, sample time 7 h PI
[22] = Study 4, 15 mg/kg SC BID, sample time 24 h PI
[23] = Study 5, 50 mg/kg SC BID, sample time 24 h PI
[24] = Study 8, 50 mg/kg SC QD, sample time 48 h PI
[25] = ATCC25923, read-out: MIC Sa26 + 10% SH, S. aureus Sa26 + 10% SH
[26] = ATCC25923, read-out: MIC Sa26 + 50% SH, S. aureus Sa26 + 50% SH
[27] = ATCC25923, S. aureus Sa26 ATCC 25923, sensitive strain, Mueller-Hinton Broth, 37° C., read-out: MIC Sa26
[28] = Study 9, 50 mg/kg PO BID, sample time 24 h PI

Sequence of DNA Polymerase IIIα (DnaE) from Staphylococcus aureus (Q6GG04 1-1022): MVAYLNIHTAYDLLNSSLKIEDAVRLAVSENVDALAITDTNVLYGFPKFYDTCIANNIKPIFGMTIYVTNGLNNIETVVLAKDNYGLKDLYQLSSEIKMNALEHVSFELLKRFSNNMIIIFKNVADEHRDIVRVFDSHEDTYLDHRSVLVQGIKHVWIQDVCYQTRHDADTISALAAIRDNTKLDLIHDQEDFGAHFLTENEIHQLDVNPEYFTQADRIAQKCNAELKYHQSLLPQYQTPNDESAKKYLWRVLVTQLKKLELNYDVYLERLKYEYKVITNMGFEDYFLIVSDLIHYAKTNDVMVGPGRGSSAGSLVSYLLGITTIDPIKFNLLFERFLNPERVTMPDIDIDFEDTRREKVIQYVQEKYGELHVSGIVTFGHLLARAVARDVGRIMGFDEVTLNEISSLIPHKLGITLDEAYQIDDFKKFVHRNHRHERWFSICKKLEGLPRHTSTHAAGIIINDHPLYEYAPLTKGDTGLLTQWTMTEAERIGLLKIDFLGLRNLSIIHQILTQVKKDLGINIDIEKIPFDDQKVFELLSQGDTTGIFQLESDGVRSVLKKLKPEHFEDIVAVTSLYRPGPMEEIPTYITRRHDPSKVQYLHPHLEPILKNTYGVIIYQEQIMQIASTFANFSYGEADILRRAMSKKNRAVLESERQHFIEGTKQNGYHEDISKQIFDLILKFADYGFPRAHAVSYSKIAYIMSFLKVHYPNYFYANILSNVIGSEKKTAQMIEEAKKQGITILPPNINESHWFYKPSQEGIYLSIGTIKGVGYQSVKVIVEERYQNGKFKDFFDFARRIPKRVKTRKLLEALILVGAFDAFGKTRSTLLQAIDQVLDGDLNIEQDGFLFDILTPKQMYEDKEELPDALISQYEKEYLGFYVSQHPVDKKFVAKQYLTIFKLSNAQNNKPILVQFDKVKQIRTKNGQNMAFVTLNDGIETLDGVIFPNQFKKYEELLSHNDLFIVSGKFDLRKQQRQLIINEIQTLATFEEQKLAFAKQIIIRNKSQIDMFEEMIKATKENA
Sequence of DNA III Polymerase E (P10443 whole entry): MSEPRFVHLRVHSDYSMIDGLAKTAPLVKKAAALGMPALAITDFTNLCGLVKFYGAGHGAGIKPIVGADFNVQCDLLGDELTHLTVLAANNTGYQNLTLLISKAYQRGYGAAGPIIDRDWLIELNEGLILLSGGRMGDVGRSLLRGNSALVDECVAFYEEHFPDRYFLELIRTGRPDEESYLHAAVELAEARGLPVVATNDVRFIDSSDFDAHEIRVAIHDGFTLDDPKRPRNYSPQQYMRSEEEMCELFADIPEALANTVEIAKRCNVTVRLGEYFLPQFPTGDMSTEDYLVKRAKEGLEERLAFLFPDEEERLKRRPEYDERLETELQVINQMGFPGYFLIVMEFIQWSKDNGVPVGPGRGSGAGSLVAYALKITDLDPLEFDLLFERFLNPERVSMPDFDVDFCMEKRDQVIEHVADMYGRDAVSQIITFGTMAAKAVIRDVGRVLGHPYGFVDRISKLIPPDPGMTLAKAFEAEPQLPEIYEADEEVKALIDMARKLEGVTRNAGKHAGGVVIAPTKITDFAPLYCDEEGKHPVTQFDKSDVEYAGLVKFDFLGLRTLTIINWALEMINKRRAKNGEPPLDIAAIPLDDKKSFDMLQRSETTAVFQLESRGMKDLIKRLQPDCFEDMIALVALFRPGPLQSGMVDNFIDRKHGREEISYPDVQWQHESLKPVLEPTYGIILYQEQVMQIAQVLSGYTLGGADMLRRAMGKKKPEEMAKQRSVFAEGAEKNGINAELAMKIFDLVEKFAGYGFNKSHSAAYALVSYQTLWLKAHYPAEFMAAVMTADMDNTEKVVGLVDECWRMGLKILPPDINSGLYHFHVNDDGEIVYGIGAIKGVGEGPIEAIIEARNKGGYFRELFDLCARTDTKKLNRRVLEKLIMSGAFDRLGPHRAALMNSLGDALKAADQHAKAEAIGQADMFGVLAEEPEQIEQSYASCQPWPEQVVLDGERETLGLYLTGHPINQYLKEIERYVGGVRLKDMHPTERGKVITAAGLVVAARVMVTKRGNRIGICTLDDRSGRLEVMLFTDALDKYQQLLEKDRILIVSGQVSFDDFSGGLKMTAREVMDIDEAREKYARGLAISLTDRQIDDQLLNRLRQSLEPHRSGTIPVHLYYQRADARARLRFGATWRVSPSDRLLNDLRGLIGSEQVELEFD

| Compound | log reduction at 50 mg/kg [2, 17] | Active [2, 18] | MIC [4] [µg/mL] | MIC [5] [µg/mL] | IC50 [6] [nM] | MIC [7] [µg/mL] | MIC [8] [µg/mL] | IC50 [9] [nM] | MIC [10, 25] [µg/mL] | MIC [10, 26] [µg/mL] | MIC [10, 27] [µg/mL] | MIC [11] [µg/mL] | MIC [12] [µg/mL] | MIC [13] [µg/mL] | MIC [14] [µg/mL] | MIC [15] [µg/mL] | MIC [16] [µg/mL] | further results |
| --- | --- | --- | --- | --- | --- | --- | --- | --- | --- | --- | --- | --- | --- | --- | --- | --- | --- | --- |
| C[C@H]1COc2c(N3CCN(C)CC3)c(F)cc3c(=O)c(C(=O)O)cn1c23 [Levofloxacin, reference compound] | -1.17 | N |  |  |  |  |  |  |  |  |  |  |  |  |  |  |  | Active ([1]; Study 2, 50 mg/kg PO BID): N; Log reduction vs. untreated ([1]; Study 2, 50 mg/kg PO BID): −1.00; log reduction at 50 mg/kg ([2]; Staphylococcus aureus, MRSA, in Mus musculus, po, read-out: Log reduction vs. untreated, Study 1, 50 mg/kg PO BID, sample 24 h post infection, lung): 0.32; log reduction at 50 mg/kg ([2]; Staphylococcus aureus, MRSA, in Mus musculus, po, read-out: Log reduction vs. untreated, Study 2, 50 mg/kg PO BID, sample 24 h post infection, lung): 0.55; Active ([2]; Study 1, 50 mg/kg PO BID, sample 24 h post infection, lung): N; Active ([2]; Study 2, 50 mg/kg PO BID, sample 24 h post infection, lung): N |
| CN[C@H](CC(C)C)C(=O)N[C@H]1C(=O)N[C@@H](CC(N)=O)C(=O)N[C@H]2C(=O)N[C@H]3C(=O)N[C@H](C(=O)N[C@H](C(=O)O)c4cc(O)cc(O)c4-c4cc3ccc4O)[C@H](O)c3ccc(c(Cl)c3)Oc3cc2cc(c3O[C@@H]2O[C@H](CO)[C@@H](O)[C@H](O)[C@H]2O[C@H]2C[C@](C)(N)[C@H](O)[C@H](C)O2)Oc2ccc(cc2Cl)[C@H]1O [Vancomycin] |  |  |  |  |  |  |  |  |  |  |  |  |  |  |  |  |  | Active ([1]; Study 1, 50 mg/kg SC BID): Y; Log reduction vs. untreated ([1]; Study 1, 50 mg/kg SC BID): −3.59; log reduction at 50 mg/kg ([2]; Staphylococcus aureus, MRSA, in Mus musculus, sc, read-out: Log reduction vs. untreated): 2; Active ([2]; Study 1, 50 mg/kg SC BID, sample 24 h post infection, lung): Y; Active [3, 19]: Y; Log reduction vs. untreated [3, 19]: −4.01; Active [3, 20]: Y; Log reduction vs. untreated [3, 20]: −2.57; Active [3, 21]: Y; Log reduction vs. untreated [3, 21]: −1.52; Active [3, 22]: Y; Log reduction vs. untreated [3, 22]: −3.96; Active [3, 23]: Y; Log reduction vs. untreated [3, 23]: −4.27; Active [3, 24]: Y; Log reduction vs. untreated [3, 24]: −3.2 |
| COC[C@@H]1[C@@H](O)[C@@H]2[C@H]3C=C[C@@H]4[C@@H](COC)C(=O)O[C@H]([C@H](O)COC)[C@H](C)/C=C(\C)[C@@]24O[C@H]3[C@@H]1OC(=O)c1cc(Cl)c[nH]1 [Compound 28, 8-O-4-Chloro-1H-pyrrole-2′-carbonylbranimycin] | 1.64 | N | 2 (≈ 3.28 µM) | 64 (≈ 105 µM) | 1.64 to 1640 | 64 (≈ 105 µM) | 64 (≈ 105 µM) | 1640 to 16400 | 4 | 16 | 4 (≈ 6.56 µM) | > 64 | > 64 | 4 (≈ 6.56 µM) | 64 (≈ 105 µM) | 1 (≈ 1.64 µM) | 4 (≈ 6.56 µM) |  |
| COC[C@@H]1[C@@H](O)[C@@H]2[C@H]3C=C[C@@H]4[C@@H](COC)C(=O)O[C@H]([C@H](O)COC)[C@H](C)/C=C(\C)[C@@]24O[C@H]3[C@@H]1OC(=O)c1cc(F)c[nH]1 [Compound 19, 8-O-4-Fluoro-1H-pyrrole-2′-carbonylbranimycin] | 3.56 | Y | 0.5 (≈ 0.842 µM) | > 64 | 1.68 to 1680 | 64 (≈ 108 µM) | > 64 | 1680 to 16800 | 0.5 | 1 | 0.5 (≈ 0.842 µM) | > 64 | > 64 | 0.5 (≈ 0.842 µM) | > 64 | 0.5 (≈ 0.842 µM) | 0.25 (≈ 0.421 µM) | log reduction at 25 mg/kg ([2]; Staphylococcus aureus, MRSA, in Mus musculus, po, 72 h, read-out: Log reduction vs. untreated, Study 6, 25 mg/kg PO QD, sample 72 h post infection, lung): 3.65; Active ([2]; Study 6, 25 mg/kg PO QD, sample 72 h post infection, lung): Y; Active [3, 28]: Y; Log reduction vs. untreated [3, 28]: −3.28 |
